# Counter-ions that a name gives are not always drawn.
# Key:
# Assay type in all cases: physicochemical
# [1] = Kinetic solubility in water (HPLC); conditions: 20 °C; for amount nearly dissolved in 0.5 mL of added water: 0.5 mL water; for amount nearly dissolved in 0.5 mL of added water / Approximate Solubility (mg/0.5 mL) / Approximate Solubility / Approximate Solubility (g/mL): 30 min; for Approximate Solubility (mg/0.5 mL) / Approximate Solubility / Approximate Solubility (g/mL) / Content of Salt in VF (mg) 30 min: water, HPLC; for Approximate Solubility / Approximate Solubility (g/mL): kinetic solubility
# Procedure: The kinetic solubility of Form A epinephrine malonate salt and bitartrate salt was determined using the procedure described herein. The solid active pharmaceutical ingredient was allowed to equilibrate from 5 °C to ambient temperature for 1 h. Solids were weighed (0.76 g of malonate and 0.20 g of bitartrate) into 4-mL vials containing a magnetic polytetrafluoroethylene (PTFE) stir bar. Water (0.5 mL) was added and samples were stirred at 20 °C. Additional API was gradually added in small portions over 30 min until trace amount of residual solid was present. At 30 min, the content of the nearly dissolved sample was transferred to a volumetric flask (VF), diluted, subjected to HPLC analyses, and adjusted for initial volume of water used.
# The HPLC analysis was conducted using an Agilent 1100 with a Phenomenx Gemini C18, 100×4.6 mm, 3.0 um column. The column temperature was 50 °C, wavelength 210 nm, and flow rate 1.2 mL/min. Mobile Phase A was 5:95 MeCN: Buffer and Mobile Phase B was 45:55 MeCN: Buffer.
# The kinetic solubility of Form B was determined using the procedure described herein. The solid Form B was allowed to equilibrate from storage temperature (5 °C) to ambient temperature for 1 hour. Solids were weighed (0.025 g of Form B) into a 4-mL vial containing a magnetic PTFE stir bar. Water (0.5 mL) was added and the sample was stirred at 20 °C. Additional API was gradually added in small portions over 30 min until trace amount of residual solid was present. At 30 minutes, the content of the nearly dissolved sample was transferred to a volumetric flask (VF), diluted, subjected to HPLC analyses, and adjusted for initial volume of water used.
# [2] = Water solubility of epinephrine malonate salt (general description); conditions: no method given
# [3] = pKa of epinephrine malonate salt Form A (general description); conditions: no method given
# [4] = Relative thermodynamic stability studies in EtOH, EtOH/water and IPA/water; solid-state form stability; conditions: for water activity (aw) at which the form is most-stable: room temperature; for relative humidity at which the form is kinetically stable: solid state, Form B once formed, Form C (days)
# Procedure: Relative thermodynamic stability studies in EtOH (crystallization process solvent), EtOH/water and IPA/water were performed. […] The critical water activity for Forms A/B interconversion is between aw=0.4-0.55 (40-55% RH). The transition temperature (Tt) for the enantiotropically related Forms A/C is between RT-40 °C. […] Form C is kinetically stable in solid state (days) at <40% RH.
# [5] = Dynamic vapor sorption (DVS); conditions: 25 °C, nitrogen carrier gas, 0-95% relative humidity
# Procedure: Form A was subjected to DVS. DVS is a gravimetric technique that measures how quickly and how much of a solvent is absorbed by a sample such as a dry powder absorbing water. The test was conducted using a Surface Measurement Systems DVS Intrinsic Plus at a temperature of 25 °C and using nitrogen as a carrier gas. The relative humidity range spanned from 0-95% and the maximum equilibration time was 240 minutes. The relative humidity steps included 40-50-60-70-75-70-60-50-40-30-20-10-0-10-20-30-40-50-60-70-75-80-90-95-90-80-75-70-60-50-40-30-20-10-0%.
# Form A was subjected to the increasing relative humidity until a change in mass occurred. Once a change in mass resulted, the relative humidity was lowered to determine stability of the resulting mass. The relative humidity was then increased again until another change in mass resulted. Once a change in mass resulted, the relative humidity was lowered to determine stability of the resulting mass.
# [6] = Stability profile of epinephrine malonate salt (general description); conditions: 7, 14, 30, 60, 90, 120, or 150 days
# [7] = listed as Epinephrine Malonate Form A
# [8] = relative thermodynamic stability
Approximate Solubility (mg/0.5 mL) [1],Approximate Solubility [1],Content of Salt in VF (mg) 30 min [1],amount nearly dissolved in 0.5 mL of added water [1],critical relative humidity for Forms A/B interconversion [4],critical water activity for Forms A/B interconversion (aw) [4],"water activity (aw) at which the form is most-stable [4, 8]",relative humidity at which the form is kinetically stable [4],SMILES,also measured
~259 mg mg/0.5 mL,~520 mg/mL,259.45 mg,,,,,,"CNC[C@H](O)c1ccc(O)c(O)c1 [Epinephrine Bitartrate, epinephrine bitartrate, reference compound]",amount nearly dissolved in 0.5 mL of added water ([1]; listed as bitartrate salt): 259 mg; Approximate Solubility (g/mL) ([1]; listed as bitartrate salt): ~ 0.52 g/mL
,,,912 mg,40-55 % RH,0.4-0.55,≤ 0.4,,"CNC[C@H](O)c1ccc(O)c(O)c1 [Form A, epinephrine malonate]","Approximate Solubility (g/mL) [1]: ~ 1.82 g/mL; Approximate Solubility [1, 7]: ~1820 mg/mL; Approximate Solubility (mg/0.5 mL) [1, 7]: ~911 mg mg/0.5 mL; Content of Salt in VF (mg) 30 min [1, 7]: 911.53 mg; solubility ([2]; water): ≥ 1140 mg/mL; pKa [3]: 5.47; changes in mass during DVS [5]: Two changes in mass occurred"
~511 mg mg/0.5 mL,1000 mg/mL,511 mg,511 mg,40-55 % RH,0.4-0.55,≥ 0.55,0-80 % RH,"CNC[C@H](O)c1ccc(O)c(O)c1 [Form B, epinephrine malonate]","relative humidity for solid-state transition from Form A to Form B ([4]; solid-state): ≥ 40 % RH; formation of Form B in solid state ([4]; solid-state, >55% RH): forms relatively quickly (hours) at >55% RH"
,,,,,,,< 40 % RH,"CNC[C@H](O)c1ccc(O)c(O)c1 [Form C, epinephrine malonate]","water activity (aw) at which the form is more stable at 40 °C ([4]; 40 °C, relative thermodynamic stability): 0"
,,,,,,,,"CNC[C@H](O)c1ccc(O)c(O)c1 [epinephrine malonate salt, epinephrine malonate]","water solubility compared with other epinephrine salts (maleate, fumarate, hemi sulfate, bitartrate, hydrochloride) ([2]; crystalline form): substantially higher; stability profile [6]: favorable stability profile"

# Reference: patent publication US20260355132A1, “POLYMORPHIC FORMS OF EPINEPHRINE MALONATE” (Biothea Pharma, Inc., priority 2023, published 2026)
